Among the test systems are BT-549 breast; SNB-75 CNS; K-562 leukemia; HCT-116 colon; OVCAR-8 ovarian; LOX IMVI melanoma; 786-0 renal; EKVX NSCLC; SK-MEL-2 melanoma; SF-268 CNS.
Common to all, as to test: inhibition of tumour cell growth, NCI panel, 48 h

Values joined by “and” are separate entries in the source; they are usually repeats but may differ in a detail not shown here. Equal values may be shown once.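 The compound was tested at five concentrations on cells cultured in 96-well plates, with a 48-hour exposure period. GI50 = concentration required for 50% inhibition of growth. TGI: concentration producing complete growth inhibition.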 Where only a bound is given, the exact number is not on record here.

We go through eight compounds from PubChem BioAssay (NCI).

`CC(=O)O[C@@H]1C2=C(C)C3(CC3)[C@@](C)(O)C(=O)C2=C[C@@]1(C)CO`: the GI50 is 509 nM in the experiment on BT-549 breast; 217 nM with SNB-75 CNS; 482 nM with K-562 leukemia; 424 nM in the experiment on HCT-116 colon; 427 nM in the experiment on OVCAR-8 ovarian; 1040 nM in the experiment with LOX IMVI melanoma. Moreover, the GI50 with 786-0 renal is 2040 nM; in the experiment with EKVX NSCLC, 2660 nM; in the experiment on SK-MEL-2 melanoma, 1860 nM; with SF-268 CNS, 357 nM. For the same compound, the TGI with BT-549 breast is 2790 nM; in the experiment with SNB-75 CNS, 1380 nM; in the experiment with K-562 leukemia it was more than 100 µM; in the experiment on HCT-116 colon, more than 100 µM; with OVCAR-8 ovarian, more than 100 µM; in the experiment on LOX IMVI melanoma, 4.44 µM. In addition, the TGI in the experiment on 786-0 renal stood at 6.1 µM; with EKVX NSCLC it was 7.56 µM; in the experiment with SK-MEL-2 melanoma, 4.43 µM; in the experiment with SF-268 CNS, 2.79 µM.

In the case of `CC(C)(C)C(=O)c1c(C(F)(F)F)n([O-])c2cc(Cl)c(Cl)cc2[n+]1=O`, the GI50 with BT-549 breast was 769 nM; in the experiment with SNB-75 CNS, 189 nM; with K-562 leukemia, 582 nM; in the experiment on HCT-116 colon it was 1580 nM; in the experiment on OVCAR-8 ovarian, 502 nM; with LOX IMVI melanoma, 1040 nM. In addition, the GI50 with 786-0 renal is 466 nM; with EKVX NSCLC, 1910 nM; in the experiment on SK-MEL-2 melanoma, 903 nM; with SF-268 CNS, 457 nM. The TGI amounted to 2110 nM with BT-549 breast; 408 nM in the experiment with SNB-75 CNS; 1.15 µM with K-562 leukemia; 2.93 µM in the experiment with HCT-116 colon; 1.51 µM in the experiment with OVCAR-8 ovarian; 0.882 µM in the experiment with 786-0 renal. Further, the TGI in the experiment with EKVX NSCLC turned out to be 3.4 µM; in the experiment with SK-MEL-2 melanoma, 2.28 µM; in the experiment on SF-268 CNS it was 0.902 µM.

For the compound `NC(Cc1cccnn1)C(=O)O` (stereo not drawn), the TGI was more than 100000 nM with BT-549 breast; more than 100000 nM in the experiment on SNB-75 CNS; more than 100 µM in the experiment on K-562 leukemia; more than 100 µM in the experiment with HCT-116 colon; more than 100 µM in the experiment on OVCAR-8 ovarian; more than 100 µM in the experiment on LOX IMVI melanoma. The TGI with 786-0 renal, in the experiment with EKVX NSCLC, with SK-MEL-2 melanoma and with SF-268 CNS was more than 100 µM in each case.

In the case of `Oc1ccc(Cl)cc1Sc1cc(Cl)ccc1O`, the GI50 was 3000 nM with BT-549 breast; 2940 nM in the experiment on SNB-75 CNS; 3800 nM with K-562 leukemia; 2790 nM in the experiment with HCT-116 colon; 3360 nM in the experiment on OVCAR-8 ovarian; 2630 nM in the experiment with LOX IMVI melanoma. In addition, the GI50 is 11900 nM in the experiment with 786-0 renal, 2580 nM in the experiment on EKVX NSCLC, 2170 nM with SK-MEL-2 melanoma and 3510 nM in the experiment with SF-268 CNS. In addition, the TGI is 33600 nM and 9290 nM with BT-549 breast; 36400 nM and 10600 nM in the experiment on SNB-75 CNS; more than 100 µM in the experiment on K-562 leukemia; 19.7 µM and 7.21 µM in the experiment on HCT-116 colon; 42.7 µM and 10.8 µM in the experiment with OVCAR-8 ovarian; 24 µM and 8.42 µM in the experiment on LOX IMVI melanoma. In addition, the TGI with 786-0 renal was 33 µM and 25.2 µM; in the experiment on EKVX NSCLC, 33 µM and 8.19 µM; with SK-MEL-2 melanoma, 24.2 µM and 5.56 µM; in the experiment on SF-268 CNS it was 31.9 µM and 13.4 µM.

As to `CC(C)c1[nH]nc2c(NCc3ccc(-c4ccccn4)cc3)nc(SCCN)nc12`, the GI50 in the experiment with BT-549 breast was 32.2 nM and 67 nM; in the experiment on SNB-75 CNS it was 5.87 nM; with K-562 leukemia, 19.8 nM; with HCT-116 colon it was 23.3 nM and 19.6 nM; in the experiment with OVCAR-8 ovarian, 38.7 nM and 24.3 nM; in the experiment on LOX IMVI melanoma, 5.53 nM. Moreover, the GI50 is 143 nM and 327 nM with 786-0 renal; 32.8 nM and 55.7 nM in the experiment on EKVX NSCLC; 30.6 nM in the experiment with SK-MEL-2 melanoma; 6.84 nM in the experiment on SF-268 CNS. Moreover, the TGI with BT-549 breast is 168 nM and 642 nM; in the experiment with SNB-75 CNS it was 33.1 nM and 44.8 nM; in the experiment with K-562 leukemia it was 10.2 µM; with HCT-116 colon, 10.6 µM; with OVCAR-8 ovarian, 12.9 µM; in the experiment on LOX IMVI melanoma it was 2.62 µM and 1.65 µM. In addition, the TGI in the experiment on EKVX NSCLC was 1.52 µM and 2.62 µM; with SK-MEL-2 melanoma, 0.105 µM; with SF-268 CNS, 7.12 µM and 5.24 µM.

As to `CC(C)c1[nH]nc2c(NCc3ccc(-c4ccccn4)cc3)nc(SCCN(C)C)nc12`, the GI50 was 19.4 nM in the experiment with BT-549 breast; 22.3 nM with SNB-75 CNS; less than 21 nM in the experiment with K-562 leukemia; 35.7 nM in the experiment with HCT-116 colon; 41.6 nM in the experiment on OVCAR-8 ovarian; 123 nM in the experiment on LOX IMVI melanoma. The GI50 in the experiment on 786-0 renal was 76.7 nM; with EKVX NSCLC, 49.4 nM; in the experiment with SK-MEL-2 melanoma, 79.8 nM; in the experiment on SF-268 CNS, less than 18 nM. In addition, the TGI with BT-549 breast came out at 217 nM; with SNB-75 CNS it was 138 nM; in the experiment on K-562 leukemia, 10.3 µM; with HCT-116 colon, 10.8 µM; with OVCAR-8 ovarian, 15.5 µM; in the experiment with LOX IMVI melanoma, 11.1 µM. Moreover, the TGI came to 6.06 µM with 786-0 renal, 2.54 µM in the experiment on EKVX NSCLC, 0.269 µM in the experiment with SK-MEL-2 melanoma and 3.68 µM with SF-268 CNS.

On to `CN(C)CC1C(=O)O[C@H]2[C@H]1CC/C(COC(=O)NCc1ccc(Cn3c(=O)sn(CCCI)c3=O)cc1)=C\CC[C@@]1(C)O[C@@H]21` (stereo partly drawn), for which the GI50 is 1840 nM with BT-549 breast; 2730 nM in the experiment on SNB-75 CNS; 1020 nM with K-562 leukemia; 793 nM in the experiment on HCT-116 colon; 1160 nM with OVCAR-8 ovarian; 913 nM with LOX IMVI melanoma. The GI50 was 1100 nM with 786-0 renal, 3190 nM in the experiment with EKVX NSCLC, 6310 nM in the experiment with SK-MEL-2 melanoma and 4840 nM in the experiment with SF-268 CNS. The TGI in the experiment on BT-549 breast amounted to 7930 nM; with SNB-75 CNS, 9510 nM; in the experiment on K-562 leukemia it was 6.01 µM; in the experiment with HCT-116 colon, 1.6 µM; in the experiment with OVCAR-8 ovarian, 2.72 µM; in the experiment on LOX IMVI melanoma, 1.69 µM. The TGI with 786-0 renal stood at 2.43 µM; in the experiment with EKVX NSCLC, 10.3 µM; in the experiment on SK-MEL-2 melanoma it was 13.8 µM; with SF-268 CNS, 11.4 µM.

Regarding `CN(C)c1cc2c(Nc3ccc4c(cnn4Cc4ccccc4)c3)ncnc2cn1`, the GI50 in the experiment on BT-549 breast was 10700 nM; in the experiment on SNB-75 CNS, more than 22000 nM; in the experiment on K-562 leukemia, 9660 nM; in the experiment on HCT-116 colon, 9230 nM; with OVCAR-8 ovarian, 9130 nM; in the experiment on LOX IMVI melanoma, 8320 nM. The GI50 was 8760 nM in the experiment on 786-0 renal, 108 nM with EKVX NSCLC, 7500 nM with SK-MEL-2 melanoma and more than 24100 nM with SF-268 CNS. Besides, the TGI in the experiment with BT-549 breast is more than 25000 nM; with SNB-75 CNS, more than 25000 nM; with K-562 leukemia, more than 25 µM; in the experiment on HCT-116 colon it was more than 25 µM; in the experiment with OVCAR-8 ovarian, more than 25 µM; with LOX IMVI melanoma, more than 25 µM. For the same compound, the TGI is more than 25 µM in the experiment with 786-0 renal, more than 8.76 µM in the experiment on EKVX NSCLC, 20.9 µM with SK-MEL-2 melanoma and more than 25 µM with SF-268 CNS.
